Measurements from PubChem BioAssay AID328 (DTP/NCI, 2004).
Where “and” joins values, the source holds several entries; their conditions need not be identical. Equal values may be shown once. Inconclusive results and toxic doses are left out.

System: BDF1 mice, P388 leukemia ip, median survival T/C
Test: NCI In Vivo Anticancer Drug Screen. Data for tumor model P388 Leukemia (intraperitoneal) in B6D2F1 (BDF1) mice
Conditions: endpoint: median survival time, higher = longer survival
Procedure, shortened: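 Transplantable tumour in mice; compound vs vehicle dosing; survival scored; ratio of treated to control reported.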

[1] = dose: 200.0 mg/kg/injection, schedule: Q04DX003 (ip), vehicle: other
[2] = dose: 400.0 mg/kg/injection, schedule: Q04DX003 (ip), vehicle: other
[3] = dose: 50.0 mg/kg/injection, schedule: Q01DX009 (ip), vehicle: saline
[4] = dose: 100.0 mg/kg/injection, schedule: Q01DX009 (ip), vehicle: saline
[5] = dose: 200.0 mg/kg/injection, schedule: Q01DX009 (ip), vehicle: saline
[6] = dose: 100.0 mg/kg/injection, schedule: Q04DX003 (ip), vehicle: saline with Tween-80
[7] = dose: 200.0 mg/kg/injection, schedule: Q04DX003 (ip), vehicle: saline with Tween-80
[8] = dose: 50.0 mg/kg/injection, schedule: Q01DX009 (ip), vehicle: saline with Tween-80
[9] = dose: 100.0 mg/kg/injection, schedule: Q01DX009 (ip), vehicle: Klucel (hydroxypropylcellulose) (HPC)
[10] = dose: 100.0 mg/kg/injection, schedule: Q01DX009 (ip), vehicle: saline with Tween-80
[11] = dose: 150.0 mg/kg/injection, schedule: Q01DX009 (ip), vehicle: Klucel (hydroxypropylcellulose) (HPC)
[12] = dose: 200.0 mg/kg/injection, schedule: Q01DX009 (ip), vehicle: Klucel (hydroxypropylcellulose) (HPC)
[13] = dose: 200.0 mg/kg/injection, schedule: Q01DX009 (ip), vehicle: saline with Tween-80
[14] = dose: 400.0 mg/kg/injection, schedule: Q01DX009 (ip), vehicle: Klucel (hydroxypropylcellulose) (HPC)
[15] = dose: 400.0 mg/kg/injection, schedule: Q04DX003 (ip), vehicle: saline with Tween-80

With NOCc1ccsn1 the T/C [1] was 95 % of control and the T/C [2] was 90 % of control.
For NC(=O)/C=C/C(=O)O, the T/C (dose: 25.0 mg/kg/injection, schedule: Q01DX009 (ip), vehicle: saline) was 101 % of control, the T/C [3] was 93 % of control and the T/C [4] was 103 % of control. The T/C [5] was 101 % of control.
With Cc1cc(N(CCOS(C)(=O)=O)CCOS(C)(=O)=O)ccc1C=O the T/C (dose: 12.5 mg/kg/injection, schedule: Q04DX003 (ip), vehicle: saline with Tween-80) was 231 % of control and the T/C (dose: 25.0 mg/kg/injection, schedule: Q04DX003 (ip), vehicle: saline with Tween-80) was 120 % of control.
O=S1ON=C(C2CCC(C3=NOS(=O)O3)C2)O1 (stereo unspecified) was tested, and the T/C (dose: 25.0 mg/kg/injection, schedule: Q01DX005 (ip), vehicle: saline with Tween-80) was 97 % of control, the T/C (dose: 50.0 mg/kg/injection, schedule: Q01DX005 (ip), vehicle: saline with Tween-80) was 104 % of control and the T/C (dose: 100.0 mg/kg/injection, schedule: Q01DX005 (ip), vehicle: saline with Tween-80) was 114 % of control.
In the case of O=C1C=CC(=O)c2c(O)c(CO)c(CO)c(O)c21, the T/C (dose: 0.19 mg/kg/injection, schedule: Q01DX009 (ip), vehicle: water) is reported as 100 % of control, the T/C (dose: 0.39 mg/kg/injection, schedule: Q01DX009 (ip), vehicle: water) is reported as 108 % of control and the T/C (dose: 0.78 mg/kg/injection, schedule: Q01DX009 (ip), vehicle: water) is reported as 115 % of control. For the same compound, the T/C (dose: 1.56 mg/kg/injection, schedule: Q01DX009 (ip), vehicle: water) was 102 % of control and the T/C (dose: 3.12 mg/kg/injection, schedule: Q01DX009 (ip), vehicle: water) was 108 % of control.
With COc1cccc(CCCC(=O)CS(C)=O)c1 (stereo unspecified) the T/C [3] was 98 % of control, the T/C [4] was 102 % of control and the T/C [5] was 109 % of control.
In the case of Clc1cc(CBr)c(CBr)cc1Cl, the T/C (dose: 12.5 mg/kg/injection, schedule: Q01DX009 (ip), vehicle: saline with Tween-80) is reported as 100 % of control.
With C=CN1C(=O)N(C=C)C(C)(CC(C)C)C1=O (stereo unspecified) the T/C (dose: 50.0 mg/kg/injection, schedule: Q04DX003 (ip), vehicle: saline with Tween-80) was 104 % of control, the T/C [6] was 109 % of control and the T/C [7] was 100 % of control.
CN=C(NC(C)C)c1ccc(NC(=O)c2ccc(C(=O)Nc3ccc(C(=NC)NC(C)C)cc3)cc2)cc1 was tested, and the T/C (dose: 16.0 mg/kg/injection, schedule: Q04DX003 (ip), vehicle: saline with Tween-80) was 118 % of control, the T/C (dose: 42.2 mg/kg/injection, schedule: Q04DX003 (ip), vehicle: saline with Tween-80) was 150 % of control and the T/C (dose: 64.0 mg/kg/injection, schedule: Q04DX003 (ip), vehicle: saline with Tween-80) was 150 % of control. For the same compound, the T/C (dose: 96.0 mg/kg/injection, schedule: Q04DX003 (ip), vehicle: saline with Tween-80) was 150 % of control.
Cc1ccccc1C(c1ccccc1C)c1ccccc1C(=O)O was tested, and the T/C (dose: 100.0 mg/kg/injection, schedule: Q01DX001 (ip), vehicle: Klucel (hydroxypropylcellulose) (HPC)) was 113 % of control, the T/C [4] was 100 % of control and the T/C (dose: 100.0 mg/kg/injection, schedule: Q04DX003 (ip), vehicle: saline) was 91 % of control. The T/C (dose: 200.0 mg/kg/injection, schedule: Q01DX001 (ip), vehicle: Klucel (hydroxypropylcellulose) (HPC)) was 109 % of control, the T/C [5] was 104 % of control and the T/C (dose: 200.0 mg/kg/injection, schedule: Q04DX003 (ip), vehicle: saline) was 100 % of control. For the same compound, the T/C (dose: 400.0 mg/kg/injection, schedule: Q01DX001 (ip), vehicle: Klucel (hydroxypropylcellulose) (HPC)) was 109 % of control, the T/C (dose: 400.0 mg/kg/injection, schedule: Q01DX009 (ip), vehicle: saline) was 95 % of control and the T/C (dose: 400.0 mg/kg/injection, schedule: Q04DX003 (ip), vehicle: saline) was 100 % of control.
With COc1ccc(/C=C2\CCC3C(CCCC34OCCO4)C2=O)cc1 (stereo unspecified) the T/C (dose: 45.0 mg/kg/injection, schedule: Q01DX009 (ip), vehicle: Klucel (hydroxypropylcellulose) (HPC)) was 104 % of control, the T/C [8] was 100 % of control and the T/C (dose: 65.0 mg/kg/injection, schedule: Q01DX009 (ip), vehicle: Klucel (hydroxypropylcellulose) (HPC)) was 95 % of control. For the same compound, the T/C [9] was 118 % of control, the T/C [10] was 104 % of control and the T/C (dose: 100.0 mg/kg/injection, schedule: Q04DX003 (ip), vehicle: other) was 91 % of control. For the same compound, the T/C [11] was 90 % of control, the T/C [12] was 100 % of control and the T/C [13] was 96 % of control. For the same compound, the T/C [1] was 108 % of control, the T/C [14] was 95 % of control and the T/C [2] was 95 % of control.
For C[C@@H]1C[C@@]2(C)C(=CC1=O)CC[C@@H]1C2=CC[C@@]2(C)[C@H]1CC[C@]2(C)O, the T/C [9] was 100 % of control and 110 % of control, the T/C (dose: 100.0 mg/kg/injection, schedule: Q04DX003 (ip), vehicle: alcohol) was 100 % of control and the T/C [12] was 90 % of control and 100 % of control. For the same compound, the T/C (dose: 200.0 mg/kg/injection, schedule: Q04DX003 (ip), vehicle: alcohol) was 105 % of control, the T/C [14] was 90 % of control and 113 % of control and the T/C (dose: 400.0 mg/kg/injection, schedule: Q04DX003 (ip), vehicle: alcohol) was 95 % of control.
For C=C1C(O)C2(O)OCC34C(CC5C(C)=CC(=O)C(O)C5(C)C23)OC(=O)C(O)C14 (stereo unspecified), the T/C (dose: 0.06 mg/kg/injection, schedule: Q01DX009 (ip), vehicle: saline) was 95 % of control, the T/C (dose: 0.25 mg/kg/injection, schedule: Q01DX009 (ip), vehicle: saline) was 106 % of control and the T/C (dose: 1.0 mg/kg/injection, schedule: Q01DX009 (ip), vehicle: saline) was 98 % of control.
With CN(C)c1ccc(C(=O)c2ccc(N(C)C)cc2)cc1 the T/C [6] was 113 % of control, the T/C (dose: 118.0 mg/kg/injection, schedule: Q04DX003 (ip), vehicle: saline with Tween-80) was 108 % of control and the T/C (dose: 177.0 mg/kg/injection, schedule: Q04DX003 (ip), vehicle: saline with Tween-80) was 106 % of control and 110 % of control. The T/C [7] was 109 % of control, the T/C (dose: 264.0 mg/kg/injection, schedule: Q04DX003 (ip), vehicle: saline with Tween-80) was 120 % of control and the T/C (dose: 265.0 mg/kg/injection, schedule: Q04DX003 (ip), vehicle: saline with Tween-80) was 103 % of control. For the same compound, the T/C (dose: 266.0 mg/kg/injection, schedule: Q04DX003 (ip), vehicle: saline with Tween-80) was 100 % of control and the T/C [15] was 105 % of control.
NN=C1CCC(=NN)CC1 was tested, and the T/C (dose: 12.5 mg/kg/injection, schedule: Q01DX009 (ip), vehicle: water) was 100 % of control, the T/C (dose: 25.0 mg/kg/injection, schedule: Q01DX009 (ip), vehicle: water) was 105 % of control and 109 % of control and the T/C (dose: 25.0 mg/kg/injection, schedule: Q04DX003 (ip), vehicle: water) was 90 % of control and 104 % of control. The T/C (dose: 50.0 mg/kg/injection, schedule: Q01DX009 (ip), vehicle: water) was 103 % of control and 113 % of control and 114 % of control, the T/C (dose: 50.0 mg/kg/injection, schedule: Q04DX003 (ip), vehicle: water) was 95 % of control and 114 % of control and 118 % of control and the T/C (dose: 100.0 mg/kg/injection, schedule: Q04DX003 (ip), vehicle: water) was 102 % of control and 111 % of control. The T/C (dose: 200.0 mg/kg/injection, schedule: Q04DX003 (ip), vehicle: water) was 92 % of control.
O=C1N(Cl)C(=O)C(c2ccccc2)(c2ccc(F)cc2)N1Cl (stereo unspecified) was tested, and the T/C (dose: 25.0 mg/kg/injection, schedule: Q04DX003 (ip), vehicle: Klucel (hydroxypropylcellulose) (HPC)) was 87 % of control, the T/C (dose: 50.0 mg/kg/injection, schedule: Q04DX003 (ip), vehicle: Klucel (hydroxypropylcellulose) (HPC)) was 100 % of control and the T/C (dose: 100.0 mg/kg/injection, schedule: Q04DX003 (ip), vehicle: Klucel (hydroxypropylcellulose) (HPC)) was 91 % of control.
For Cc1oc(-c2ccccc2)nc1C(=O)O, the T/C [6] was 106 % of control, the T/C [7] was 100 % of control and the T/C [15] was 102 % of control.
For COc1cc2c(cc1OC)-c1cc3cc(OC)c(OC)cc3c(CCC(=O)O)[n+]1CC2, the T/C (dose: 75.0 mg/kg/injection, schedule: Q01DX009 (ip), vehicle: Klucel (hydroxypropylcellulose) (HPC)) was 101 % of control and the T/C [11] was 101 % of control.
OCC1OC(n2cnc3c(NO)ncnc32)C(O)C1O (stereo unspecified) was tested, and the T/C (dose: 12.5 mg/kg/injection, schedule: Q01DX009 (ip), vehicle: Klucel (hydroxypropylcellulose) (HPC)) was 108 % of control and the T/C [9] was 108 % of control.
In the case of COc1ccc(N=Cc2ccc3c(c2)OCO3)cc1, the T/C [8] is reported as 98 % of control, the T/C [10] is reported as 100 % of control and the T/C [13] is reported as 105 % of control. For the same compound, the T/C (dose: 400.0 mg/kg/injection, schedule: Q01DX009 (ip), vehicle: saline with Tween-80) was 98 % of control.
